Laboratory results from patent US20240158446A1, “CYCLIC COMPOUND HAVING SELECTIVE INHIBITORY ACTION ON KRAS OVER HRAS AND NRAS” (CHUGAI SEIYAKU KABUSHIKI KAISHA, priority 2021, published 2024).

Columns and labels:
[1] = target: GDP-bound NRAS wild-type protein (Homo sapiens, UniProt P01111); experiment: Binding to NRAS by surface plasmon resonance (SPR), Single Cycle Kinetics; conditions: SPR; GDP-bound NRAS wild-type protein vs GDP-bound KRAS wild-type protein; KD ratio class
[2] = system: human lung cancer strain NCI-H441;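 further: cell proliferation inhibition after four days measured by CellTiter-Glo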
[3] = target: GDP-bound HRAS wild-type protein (Homo sapiens, UniProt P01112); experiment: Binding to HRAS by surface plasmon resonance (SPR), Single Cycle Kinetics; conditions: SPR; GDP-bound HRAS wild-type protein vs GDP-bound KRAS wild-type protein; KD ratio class
[4] = target: GDP-bound KRAS wild-type protein (Homo sapiens, UniProt P01116); experiment: Binding to KRAS by surface plasmon resonance (SPR), Single Cycle Kinetics; conditions: SPR, Single Cycle Kinetics, 1:1 binding model; GDP-bound KRAS wild-type protein; read-out: KRAS KD
Chain of GDP-bound KRAS wild-type protein (P01116 whole entry): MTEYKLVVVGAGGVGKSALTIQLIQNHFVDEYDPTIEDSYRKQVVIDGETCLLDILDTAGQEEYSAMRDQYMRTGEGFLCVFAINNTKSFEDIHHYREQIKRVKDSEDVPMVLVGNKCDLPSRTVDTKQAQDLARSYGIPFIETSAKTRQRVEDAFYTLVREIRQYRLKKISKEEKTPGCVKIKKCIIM

Chain of GDP-bound HRAS wild-type protein (P01112 whole entry): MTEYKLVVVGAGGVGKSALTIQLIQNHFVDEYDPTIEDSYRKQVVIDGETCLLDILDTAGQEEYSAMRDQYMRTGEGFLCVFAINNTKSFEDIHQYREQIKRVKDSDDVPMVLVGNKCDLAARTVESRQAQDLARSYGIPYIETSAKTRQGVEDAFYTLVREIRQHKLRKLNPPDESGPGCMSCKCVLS
Chain of GDP-bound NRAS wild-type protein (P01111 whole entry): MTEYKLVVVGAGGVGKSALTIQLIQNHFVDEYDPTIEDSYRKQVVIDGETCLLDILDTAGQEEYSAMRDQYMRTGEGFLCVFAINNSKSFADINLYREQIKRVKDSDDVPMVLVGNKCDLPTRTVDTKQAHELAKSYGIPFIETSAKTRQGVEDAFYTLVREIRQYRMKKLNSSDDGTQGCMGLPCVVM

| IC50 [2] | Kd [4] | SMILES | NRAS/KRAS (ratio of KD value for NRAS to KD value for KRAS) [1] | HRAS/KRAS (ratio of KD value for HRAS to KD value for KRAS) [3] |
| --- | --- | --- | --- | --- |
| 4.2 nM | 0.13 nM | CC[C@H](C)[C@@H]1NC(=O)[C@H](CC)N(C)C(=O)C[C@@H](C(=O)N2CCOCC2)N(C)C(=O)[C@H](C2CCCC2)N(C)C(=O)C2(CCCC2)NC(=O)[C@@H]2CCCN2C(=O)[C@H](CCc2cc(F)c(C(F)(F)F)c(F)c2)NC(=O)CN(C)C(=O)[C@H](Cc2ccc(C(F)(F)F)cc2)N2C[C@H](C)[C@H](C)C[C@@H](C2=O)N(C)C(=O)CN(C)C1=O [PP1365] | A (a compound having 10 or more and less than 20 is denoted as A) | B (a compound having 3 or more and less than 10 is denoted as B) |
| 14 nM | 0.11 nM | CC[C@H](C)[C@@H]1NC(=O)[C@H](CC)N(C)C(=O)C[C@@H](C(=O)N2CCOCC2)N(C)C(=O)[C@H](C2CCCC2)N(C)C(=O)C2(CCC2)NC(=O)[C@@H]2CCCN2C(=O)[C@H](CCc2cc(F)c(C(F)(F)F)c(F)c2)NC(=O)CN(C)C(=O)[C@H](Cc2ccc(C(F)(F)F)cc2)N2C[C@H](C)[C@H](C)C[C@@H](C2=O)N(C)C(=O)CN(C)C1=O [PP1366] | A (a compound having 10 or more and less than 20 is denoted as A) | B (a compound having 3 or more and less than 10 is denoted as B) |
| 29.3 nM | 0.34 nM | CC[C@H](C)[C@@H]1NC(=O)[C@H](CC(C)C)N(C)C(=O)C[C@@H](C(=O)N2CCOCC2)N(C)C(=O)[C@H](C2CCCC2)N(C)C(=O)C2(CCC2)NC(=O)[C@@H]2CCCN2C(=O)[C@H](CCc2cc(F)c(C(F)(F)F)c(F)c2)NC(=O)CN(C)C(=O)[C@H](Cc2ccc(C(F)(F)F)cc2)N2C[C@H](C)[C@H](C)C[C@@H](C2=O)N(C)C(=O)[C@@H]2CCN2C1=O [PP1367] | A (a compound having 10 or more and less than 20 is denoted as A) | B (a compound having 3 or more and less than 10 is denoted as B) |
| 2.9 nM | 0.061 nM | CC[C@H](C)[C@@H]1NC(=O)[C@H](CC2CC2)N(C)C(=O)C[C@@H](C(=O)N(C)C)N(C)C(=O)[C@H](C2CCCC2)N(C)C(=O)C2(CCCC2)NC(=O)[C@@H]2CCCN2C(=O)[C@H](CCc2cc(F)c(C(F)(F)F)c(F)c2)NC(=O)CN(C)C(=O)[C@H](Cc2ccc(C(F)(F)F)cc2)N2C[C@H](C)[C@H](C)C[C@@H](C2=O)N(C)C(=O)CN(C)C1=O [PP1368] | A (a compound having 10 or more and less than 20 is denoted as A) | B (a compound having 3 or more and less than 10 is denoted as B) |
| 13.4 nM | 0.26 nM | CCO[C@@H]1C[C@H]2C(=O)NC3(CCC3)C(=O)N(C)[C@@H](C3CCCC3)C(=O)N(C)[C@H](C(=O)N3CCOCC3)CC(=O)N(C)[C@@H](CC)C(=O)N[C@@H]([C@@H](C)CC)C(=O)N3CC[C@H]3C(=O)N(C)[C@H]3CC[C@@H](C)CN(C3=O)[C@@H](Cc3ccc(C(F)(F)F)cc3)C(=O)N(C)CC(=O)N[C@@H](CCc3cc(F)c(C(F)(F)F)c(F)c3)C(=O)N2C1 [PP1369] | B (a compound having 3 or more and less than 10 is denoted as B) | B (a compound having 3 or more and less than 10 is denoted as B) |
| 2.3 nM | 0.057 nM | CCO[C@@H]1C[C@H]2C(=O)NC3(CCCC3)C(=O)N(C)[C@@H](C3CCCC3)C(=O)N(C)[C@H](C(=O)N(C)C)CC(=O)N(C)[C@@H](CC)C(=O)N[C@@H]([C@@H](C)CC)C(=O)N(C)CC(=O)N(C)[C@H]3CC[C@@H](C)CN(C3=O)[C@@H](Cc3ccc(C(F)(F)F)cc3)C(=O)N(C)CC(=O)N[C@@H](CCc3cc(F)c(C(F)(F)F)c(F)c3)C(=O)N2C1 [PP1370] | C (A compound having a KD ratio of 0.1 or more and less than 3 is denoted as C) | C (A compound having a KD ratio of 0.1 or more and less than 3 is denoted as C) |
| 5.1 nM | 0.077 nM | CCO[C@@H]1C[C@H]2C(=O)NC3(CCCC3)C(=O)N(C)[C@@H](C3CCCC3)C(=O)N(C)[C@H](C(=O)N3CCOCC3)CC(=O)N(C)[C@@H](CC)C(=O)N[C@@H]([C@@H](C)CC)C(=O)N(C)CC(=O)N(C)[C@H]3CC[C@@H](C)CN(C3=O)[C@@H](Cc3ccc(C(F)(F)F)cc3)C(=O)N(C)CC(=O)N[C@@H](CCc3cc(F)c(C(F)(F)F)c(F)c3)C(=O)N2C1 [PP1371] | A (a compound having 10 or more and less than 20 is denoted as A) | B (a compound having 3 or more and less than 10 is denoted as B) |
| 5 nM | 0.078 nM | CCO[C@@H]1C[C@H]2C(=O)NC3(CCC3)C(=O)N(C)[C@@H](C3CCCC3)C(=O)N(C)[C@H](C(=O)N3CCOCC3)CC(=O)N(C)[C@@H](CC)C(=O)N[C@@H]([C@@H](C)CC)C(=O)N(C)CC(=O)N(C)[C@H]3CC[C@@H](C)CN(C3=O)[C@@H](Cc3ccc(C(F)(F)F)cc3)C(=O)N(C)CC(=O)N[C@@H](CCc3cc(F)c(C(F)(F)F)c(F)c3)C(=O)N2C1 [PP1372] | B (a compound having 3 or more and less than 10 is denoted as B) | B (a compound having 3 or more and less than 10 is denoted as B) |
| 12.2 nM | 0.35 nM | CCO[C@@H]1C[C@H]2C(=O)NC3(CCC3)C(=O)N(C)[C@@H](C3CCCC3)C(=O)N(C)[C@H](C(=O)N3CCOCC3)CC(=O)N(C)[C@@H](CC(C)C)C(=O)N[C@@H]([C@@H](C)CC)C(=O)N3CC[C@H]3C(=O)N(C)[C@H]3CC[C@@H](C)CN(C3=O)[C@@H](Cc3ccc(C(F)(F)F)cc3)C(=O)N(C)CC(=O)N[C@@H](CCc3cc(F)c(C(F)(F)F)c(F)c3)C(=O)N2C1 [PP1373] | B (a compound having 3 or more and less than 10 is denoted as B) | B (a compound having 3 or more and less than 10 is denoted as B) |
| 11.5 nM | 0.23 nM | CCO[C@@H]1C[C@H]2C(=O)NC3(CCC3)C(=O)N(C)[C@@H](C3CCCC3)C(=O)N(C)[C@H](C(=O)N3CCOCC3)CC(=O)N(C)[C@@H](CC)C(=O)N[C@@H]([C@@H](C)CC)C(=O)N3CC[C@H]3C(=O)N(C)[C@H]3CC[C@@H](C)CN(C3=O)[C@@H](Cc3ccc(C(F)(F)F)cc3)C(=O)N(C)CC(=O)N[C@@H](CCc3ccc(C(F)(F)F)c(Cl)c3)C(=O)N2C1 [PP1375] | B (a compound having 3 or more and less than 10 is denoted as B) | B (a compound having 3 or more and less than 10 is denoted as B) |
| 3.5 nM | 0.037 nM | CCO[C@@H]1C[C@H]2C(=O)NC3(CCCC3)C(=O)N(C)[C@@H](C3CCCC3)C(=O)N(C)[C@H](C(=O)N(C)C)CC(=O)N(C)[C@@H](CC)C(=O)N[C@@H]([C@@H](C)CC)C(=O)N(C)CC(=O)N(C)[C@H]3CC[C@@H](C)CN(C3=O)[C@@H](Cc3ccc(C(F)(F)F)cc3)C(=O)N(C)CC(=O)N[C@@H](CCc3ccc(C(F)(F)F)c(Cl)c3)C(=O)N2C1 [PP1376] | B (a compound having 3 or more and less than 10 is denoted as B) | B (a compound having 3 or more and less than 10 is denoted as B) |
